Where a name gives a salt, the structure may show the parent alone.
Assays:
[1] = tested on: DNA duplex polymer poly(dA-dT); assay: Thermal melting, interaction with the DNA duplex polymer poly(dA-dT); type: binding
From the text: (§1) Table 2 contains thermal melting results from evaluation of the interaction of compounds 3, 5 and 7 with the DNA duplex polymer poly(dA-dT). In order to rank the relative binding affinities for interactions with DNA, the duplex oligomer d(CGCGAATTCGCG)2 (A2 T2) was employed. […] The increase in melting temperature on complex formation with the furan dications are related to the binding affinities of these molecules with nucleic acid. This enhanced DNA affinity of the N-alkyl substituted amidines is though to the in large part due to additional non-bonded interactions between the alkyl groups and the walls of the minor groove.
^a) Increase in thermal melting of polyA-- polyT, see Boykin, […]

Pneumocystis carinii = assay: In vivo evaluation on intravenous administration against P. carinii in the immunosuppressed rat model; settings: saline = 100.0
[2] = Toxicity in the immunosuppressed rat model of Pneumocystis carinii pneumonia; type: in vivo; settings: iv
From the text: Data obtained with pentamidine, a compound currently used clinically for treatment of PCP, are included for comparison.
^c) Evluation of iv dosage of the furon dicatons against P. carinii i
rats as descibed in Boykin, supra.

[3] = tested on: duplex oligomer d(CGCGAATTCGCG)2 (A2 T2); assay: Thermal melting with the duplex oligomer, ranking of relative DNA binding affinities; settings: duplex oligomer A2T2
From the text: as §1
^b) Increase in thermal melting of the oligomer […], see

Structure (SMILES) | ΔTm (DNA), increase in thermal melting of polyA-polyT [1] | Cysts/g lung (Pneumocystis carinii; 10.0 umol/kg/d) | Toxicity ([2]; 10.0 umol/kg/d) | ΔTM (oligomer), increase in thermal melting of the oligomer [3] | Cysts/g lung (Pneumocystis carinii; 1.0 umol/kg/d) | Cysts/g lung (Pneumocystis carinii; 22.0 umol/kg/d) | Cysts/g lung (Pneumocystis carinii; 0.25 umol/kg/d) | Cysts/g lung (Pneumocystis carinii; 5.0 umol/kg/d) | Toxicity ([2]; 0.25 umol/kg/d) | Toxicity ([2]; 1.0 umol/kg/d) | Toxicity ([2]; 5.0 umol/kg/d)
N=C(N)c1ccc(-c2coc(-c3ccc(C(=N)N)cc3)c2)cc1 [Compound 1, 2,4-Bis[4-{(amidino)pnehyl}]furan] | 19.0 | 0.44 % of control | 0 | 9.1 |  |  |  |  |  |  | 
N=C(NC1CCCC1)c1ccc(-c2coc(-c3ccc(C(=N)NC4CCCC4)cc3)c2)cc1 [Compound 4, 2,4-Bis[4-{N-(cyelopentylamidino)phenyl}]furan] | 20.4 | 0.06 % of control | 0 | 13.6 | 3.21 % of control |  |  |  |  |  | 
N=C(N)c1ccc(OCCCCCOc2ccc(C(=N)N)cc2)cc1 [pentamidine, reference compound] |  |  |  |  |  | 1.46 % of control |  |  |  |  | 
CC(C)NC(=N)c1ccc(-c2coc(-c3ccc(C(=N)NC(C)C)cc3)c2)cc1 [Compound 2, 2,4-Bis[4-{N-(i-propylamidino)phenyl}]furan] | 17.6 | 0.03 % of control | 0 | 10.9 | 0.84 % of control |  | 38.20 % of control | 0.0003 % of control | 0 | 0 | 0
c1cc(-c2coc(-c3ccc(C4=NCCN4)cc3)c2)ccc1C1=NCCN1 [Compound 5, 2,4-Bis[4,5-dihydro-1H-imidazol-2-yl)phenyl]furan Dihydrochloride] | 16.8 |  |  | 7.2 |  |  |  |  |  |  | 
CC(C)CNC(=N)c1ccc(-c2coc(-c3ccc(C(=N)NCC(C)C)cc3)c2)cc1 [Compound 3, 2-,4-Bis[4-{-(i-butylamidino)phenyl}]furan] | 20.4 |  |  | 9.3 |  |  |  |  |  |  | 

— patent US6008247A, “2,4-bis[(4-amidino)phenyl]furans as anti-Pneumocystis carinii agents” (The University of North Carolina at Chapel Hill, priority 1998, dated 1999)
